Laboratory results as given in EP0714912B1, “GMP-140 ligand” (THE BOARD OF REGENTS OF THE UNIVERSITY OF OKLAHOMA, priority 1990, dated 1992).

Target: T1, immobilized GMP-140 (Homo sapiens, UniProt P16109)
T1 construct: from tissue; host or cells: outdated human platelet packs
T1 sequence (P16109 42-830): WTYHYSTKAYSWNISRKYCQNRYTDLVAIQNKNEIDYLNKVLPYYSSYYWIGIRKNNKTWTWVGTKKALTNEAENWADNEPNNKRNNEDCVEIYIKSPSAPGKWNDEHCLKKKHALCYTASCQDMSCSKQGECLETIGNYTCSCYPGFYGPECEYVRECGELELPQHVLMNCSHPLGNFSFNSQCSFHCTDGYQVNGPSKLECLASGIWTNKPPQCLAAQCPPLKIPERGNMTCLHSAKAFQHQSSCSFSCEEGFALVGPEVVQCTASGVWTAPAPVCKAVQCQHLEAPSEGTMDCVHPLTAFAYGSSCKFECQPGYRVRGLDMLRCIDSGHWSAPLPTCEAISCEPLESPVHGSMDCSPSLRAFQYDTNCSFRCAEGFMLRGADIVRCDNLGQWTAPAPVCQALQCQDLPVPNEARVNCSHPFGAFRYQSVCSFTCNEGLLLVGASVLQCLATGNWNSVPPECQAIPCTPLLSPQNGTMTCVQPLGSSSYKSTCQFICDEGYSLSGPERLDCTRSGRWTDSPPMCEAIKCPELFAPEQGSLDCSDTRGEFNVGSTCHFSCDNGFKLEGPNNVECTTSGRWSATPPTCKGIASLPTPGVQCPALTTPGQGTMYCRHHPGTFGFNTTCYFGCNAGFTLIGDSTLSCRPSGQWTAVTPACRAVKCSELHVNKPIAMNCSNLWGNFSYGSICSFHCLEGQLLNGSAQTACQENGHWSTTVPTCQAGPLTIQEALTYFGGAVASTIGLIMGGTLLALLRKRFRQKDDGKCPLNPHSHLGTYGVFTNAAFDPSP
Assay: Neutrophil adhesion to purified GMP-140 immobilized on plastic wells (myeloperoxidase read-out)
Assay type: cell-based
Conditions: concentrations up to 300 µM
Source text: Peptides were screened for their ability to inhibit neutrophil adhesion to purified GMP-140 immobilized on plastic wells, using the assay described by Geng, et al., Nature 343, 757-760 (1990).
Human neutrophils are isolated from heparinized whole blood by density gradient centrifugation on Mono-Poly resolving media, Flow Laboratories. Neutrophil suspensions are greater than 98% pure and greater than 95% viable by trypan blue exclusion. For adhesion assays, neutrophils are suspended at a concentration of 2 x 10^6 cells/ml in Hanks' balanced salt solution containing 1.26 mM Ca^2+ and 0.81 mM Mg^2+ (HBSS, Gibco) with 5 mg/ml human serum albumin (HBSS/HSA). Adhesion assays are conducted in triplicate in 96-well microtiter plates, Corning, incubated at 4°C overnight with 50 microliters of various protein solutions.
GMP-140 is plated at 5 micrograms/ml and the control proteins: human serum albumin (Alb), platelet glycoprotein IIb/IIIa (IIb), von Willebrand factor (vWF), fibrinogen (FIB), thrombomodulin (TM), gelatin (GEL) or human serum (HS), are added at 50 micrograms/ml. All wells are blocked for 2 h at 22°C with 300 microliters HBSS containing 10 mg/ml HSA, then washed three times with HBSS containing 0.1% Tween-20 and once with HBSS. […] Inhibition is read as a lower percent adhesion, so that a value of 5% means that 95% of the specific adhesion was inhibited. […]

CC(=O)N[C@H]1[C@H](O[C@H]2[C@@H](O)[C@@H](CO)O[C@@H](O[C@H]3[C@H](O)[C@@H](O)C(O)O[C@@H]3CO)[C@@H]2O)O[C@H](CO)[C@@H](O[C@@H]2O[C@H](CO)[C@H](O)[C@H](O)[C@H]2O)[C@@H]1O[C@@H]1O[C@@H](C)[C@@H](O)[C@@H](O)[C@@H]1O (stereo partly shown) [LNFIII]
effect on binding of neutrophils to purified, immobilized GMP-140: absolutely no effect
